Target: SLBR-N (SLBRUB10712) (Streptococcus mitis, UniProt A0A6I8WFK9)
Experiment: ITC
Settings: single-site binding model

SLBR-N (SLBRUB10712), sequence (A0A6I8WFK9 entry or part of it): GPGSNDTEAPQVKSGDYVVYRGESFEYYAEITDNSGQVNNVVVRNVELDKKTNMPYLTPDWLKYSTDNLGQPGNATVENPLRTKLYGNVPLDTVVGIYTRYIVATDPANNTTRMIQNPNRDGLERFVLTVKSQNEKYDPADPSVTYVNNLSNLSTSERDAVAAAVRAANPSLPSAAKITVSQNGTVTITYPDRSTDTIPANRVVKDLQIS

**Q.** Which Kd does the source give for `CC(=O)N[C@H]1[C@H](OC[C@H]2O[C@H](O[C@H](C)[C@H](N)C(=O)O)[C@H](NC(C)=O)[C@@H](O[C@@H]3O[C@H](CO)[C@H](O)[C@H](O[C@]4(C(=O)O)C[C@H](O)[C@@H](NC(C)=O)[C@H]([C@H](O)[C@H](O)CO)O4)[C@H]3O)[C@H]2O)O[C@H](CO)[C@@H](O[C@@H]2O[C@H](CO)[C@H](O)[C@H](O[C@]3(C(=O)O)C[C@H](O)[C@@H](NC(C)=O)[C@H]([C@H](O)[C@H](O)CO)O3)[C@H]2O)[C@@H]1O` [compound 5, ligand 5] here?
**A.** 15.1 ± 1.13 µM

Source: publication PMC10906241, “Molecular Insights into O-Linked Sialoglycans Recognition by the Siglec-Like SLBR-N (SLBRUB10712) of Streptococcus gordonii” (ACS Central Science, 2024)
